According to patent publication US20180338980A1, “AROMATIC SULFONAMIDE DERIVATIVES” (BAYER PHARMA AKTIENGESELLSCHAFT, priority 2015, published 2018):
One block for each compound: values may come before it.

Target: T1, P2X4 (Homo sapiens, UniProt Q99571)
T1 sequence (Q99571 1-388): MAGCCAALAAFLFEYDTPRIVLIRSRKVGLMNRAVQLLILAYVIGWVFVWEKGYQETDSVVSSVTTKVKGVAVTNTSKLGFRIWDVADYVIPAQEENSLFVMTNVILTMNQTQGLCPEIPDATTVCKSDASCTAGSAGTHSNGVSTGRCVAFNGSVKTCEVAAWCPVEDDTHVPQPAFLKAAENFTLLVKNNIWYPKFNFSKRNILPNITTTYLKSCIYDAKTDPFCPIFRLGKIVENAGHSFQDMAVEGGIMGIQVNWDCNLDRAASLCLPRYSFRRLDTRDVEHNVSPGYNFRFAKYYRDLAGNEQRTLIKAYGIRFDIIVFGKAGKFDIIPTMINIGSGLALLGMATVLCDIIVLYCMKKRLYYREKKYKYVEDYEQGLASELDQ
Assay: Assay B: human P2X4 receptor cell line, mitochondrial photina luminescence (agonist Bz-ATP at EC50)
Type: cell-based
Parameters: host or cells: HEK 293 (recombinant, constitutively expressing; with mitochondrial photina in Assay B)
Conditions: HEK human P2X4 cell line, photina luminescence, agonist Bz-ATP at EC50, average; for Emax: read-out: human P2X4 Assay B avg Efficacy
Experimental: The identification of agonists and antagonists of the P2X4 receptor from humans and […] also the quantification of the activity of the compounds of the invention was performed by use of recombinant cell lines. […] The test cell lines constitutively express the mouse or human P2X4 receptors. Stimulation of the receptors with an agonist leads to a conformational change of P2X4 and influx of extracellular calcium ions through the ion channel. The cytoplasmatic calcium transient is detected via the calcium sensitive dye Fluo8 for the mouse P2×4 cell line or in case of the human P2×4 cell line a stably expressed calcium-sensitive photoprotein, mitochondrial photina, which, after reconstitution with the cofactor coelenterazine, emits light in dependence of calcium binding [Bovolenta S, Foti M, Lohmer S, Corazza S., J Biomol Screen. […] The strength of Fluo8 fluorescence signal or photina luminescence signal corresponds to the level of receptor activation. An inhibitor would decrease the signal depending on its potency and concentration.
The resulting light signal is measured immediately in the luminometer.

Compound: N#Cc1cc(Cl)cc(Oc2ccc(NC(=O)Cc3ccccc3Cl)cc2S(N)(=O)=O)c1 [Example 001, N-[4-(3-Chloro-5-cyanophenoxy)-3-sulfamoylphenyl]-2-(2-chlorophenyl)acetamide]
- IC50: 7.72 µM
- Emax: 61%

Compound: NS(=O)(=O)c1cc(NC(=O)Cc2ccccc2Cl)ccc1Oc1ccnc(Cl)c1 [Example 003, 2-(2-Chlorophenyl)-N-{4-[(2-chloropyridin-4-yl)oxy]-3-sulfamoylphenyl}acetamide]
- IC50: 6.34 µM
- Emax: 50%

Compound: NS(=O)(=O)c1cc(NC(=O)Cc2ccccc2Cl)ccc1Oc1cncnc1 [Example 019, 2-(2-Chlorophenyl)-N-[4-(pyrimidin-5-yloxy)-3-sulfamoylphenyl]acetamide]
- IC50: 1.42 µM
- Emax: 80%

Compound: NS(=O)(=O)c1cc(NC(=O)Cc2ccccc2Cl)ccc1Oc1cccc(-c2nnn[nH]2)c1 [Example 021, 2-(2-Chlorophenyl)-N-{3-sulfamoyl-4-[3-(1H-tetrazol-5-yl)phenoxy]phenyl}acetamide]
- IC50: 3.87 µM
- Emax: 60%

Compound: N#Cc1ccc(Oc2ccc(NC(=O)Cc3ccccc3Cl)cc2S(N)(=O)=O)cc1C#N [Example 025, 2-(2-Chlorophenyl)-N-[4-(3,4-dicyanophenoxy)-3-sulfamoylphenyl]acetamide]
- IC50: > 16 µM
- Emax: 50%

Compound: N#Cc1ccc(Oc2ccc(NC(=O)Cc3ccccc3Cl)cc2S(N)(=O)=O)cc1 [Example 030, 2-(2-Chlorophenyl)-N-[(4-cyanophenoxy)-3-sulfamoylphenyl]acetamide]
- IC50: 5.08 µM
- Emax: 99%

Compound: N#Cc1cc(C#N)cc(Oc2ccc(NC(=O)Cc3ccccc3Cl)cc2S(N)(=O)=O)c1 [Example 033, 2-(2-Chlorophenyl)-N-[4-(3,5-dicyanophenoxy)-3-sulfamoylphenyl]acetamide]
- IC50: 6.75 µM
- Emax: 75%

Compound: NS(=O)(=O)c1cc(NC(=O)Cc2ccccc2Cl)ccc1Oc1cc(Cl)cnc1Cl [Example 035, 2-(2-Chlorophenyl)-N-{4-[(2,5-dichloropyridin-3-yl)oxy]-3-sulfamoylphenyl}acetamide]
- IC50: 3.57 µM
- Emax: 60%

Compound: CN1CCN=C1c1cccc(Oc2ccc(NC(=O)Cc3ccccc3Cl)cc2S(N)(=O)=O)c1 [Example 041, 2-(2-Chlorophenyl)-N-{4-[3-(1-methyl-4,5-dihydro-1H-imidazol-2-yl)phenoxy]-3-sulfamoylphenyl}acetamide]
- IC50: 3.38 µM
- Emax: 72%

Compound: NS(=O)(=O)c1cc(NC(=O)Cc2ccccc2Cl)ccc1Oc1ccc(N2CCOCC2)cc1 [Example 044, 2-(2-Chlorophenyl)-N-{4-[4-(morpholin-4-yl)phenoxy]-3-sulfamoylphenyl}acetamide]
- IC50: 2.63 µM
- Emax: 69%

Compound: Cc1c(C#N)cccc1Oc1ccc(NC(=O)Cc2ccccc2Cl)cc1S(N)(=O)=O [Example 046, 2-(2-Chlorophenyl)-N-[4-(3-cyano-2-methylphenoxy)-3-sulfamoylphenyl]acetamide]
- IC50: 0.841 µM
- Emax: 75%

Compound: N#Cc1ncc(Cl)cc1Oc1ccc(NC(=O)Cc2ccccc2Cl)cc1S(N)(=O)=O [Example 048, N-{4-[(5-Chloro-2-cyanopyridin-3-yl)oxy]-3-sulfamoylphenyl}-2-(2-chlorophenyl)acetamide]
- IC50: 11.6 µM
- Emax: 73%

Compound: N#CC1(COc2ccc(NC(=O)Cc3ccccc3Cl)cc2S(N)(=O)=O)CCOCC1 [Example 055, 2-(2-Chlorophenyl)-N-{4-[(4-cyanotetrahydro-2H-pyran-4-yl)methoxy]-3-sulfamoylphenyl}acetamide]
- IC50: 1.16 µM
- Emax: 71%

Compound: NS(=O)(=O)c1cc(NC(=O)Cc2ccccc2Cl)ccc1Oc1cnc(C(F)(F)F)nc1 [Example 056, 2-(2-Chlorophenyl)-N-(3-sulfamoyl-4-{[2-(trifluoromethyl)pyrimidin-5-yl]oxy}phenyl)acetamide]
- IC50: > 50 µM
- Emax: 15%

Compound: CC(C)c1ncc(Oc2ccc(NC(=O)Cc3ccccc3Cl)cc2S(N)(=O)=O)cn1 [Example 057, 2-(2-Chlorophenyl)-N-{4-[(2-isopropylpyrimidin-5-yl)oxy]-3-sulfamoylphenyl}acetamide]
- IC50: 1.59 µM
- Emax: 65%

Compound: Cc1nc(C2CC2)ncc1Oc1ccc(NC(=O)Cc2ccccc2Cl)cc1S(N)(=O)=O [Example 058, 2-(2-Chlorophenyl)-N-{4-[(2-cyclopropyl-4-methylpyrimidin-5-yl)oxy]-3-sulfamoylphenyl}acetamide]
- IC50: 3.18 µM
- Emax: 73%

Compound: NS(=O)(=O)c1cc(NC(=O)Cc2ccccc2Cl)ccc1Oc1ccc(Br)cc1 [Example 060, N-[4-(4-Bromophenoxy)-3-sulfamoylphenyl]-2-(2-chlorophenyl)acetamide]
- Emax: 34%

Compound: N#Cc1cc(F)cc(Oc2ccc(NC(=O)Cc3ccccc3Cl)cc2S(N)(=O)=O)c1 [Example 069, 2-(2-chlorophenyl)-N-[4-(3-cyano-5-fluorophenoxy)-3-sulfamoylphenyl]acetamide]
- IC50: 2.68 µM
- Emax: 71%

Compound: COc1ccccc1Oc1ccc(NC(=O)Cc2ccccc2)cc1S(N)(=O)=O [Example 070, N-[4-(2-Methoxyphenoxy)-3-sulfamoylphenyl]-2-phenylacetamide]
- IC50: 1.1 µM
- Emax: 70%

Compound: COc1ccccc1Oc1ccc(NC(=O)Cc2ccc(C(F)(F)F)cc2)cc1S(N)(=O)=O [Example 071, N-[4-(2-Methoxyphenoxy)-3-sulfamoylphenyl]-2-[4-(trifluoromethyl)phenyl]acetamide]
- IC50: 2.09 µM
- Emax: 73%

Compound: NS(=O)(=O)c1cc(NC(=O)Cc2ccc(C(F)(F)F)cc2)ccc1Oc1ccccc1OC(F)(F)F [Example 072, N-{3-Sulfamoyl-4-[2-(trifluoromethoxy)phenoxy]phenyl}-2-[4-(trifluoromethyl)phenyl]acetamide]
- IC50: 2.96 µM
- Emax: 63%

Compound: NS(=O)(=O)c1cc(NC(=O)Cc2ccc(C(F)(F)F)cc2)ccc1Oc1ccccc1Cl [Example 073, N-[4-(2-Chlorophenoxy)-3-sulfamoylphenyl]-2-[4-(trifluoromethyl)phenyl]acetamide]
- IC50: 3.37 µM
- Emax: 65%

Results, then the compound that gave them:

- IC50: 0.519 µM
- human P2X4 Assay B avg Efficacy: 64%
Compound: CC(Oc1ccc(NC(=O)Cc2ccccc2Cl)cc1S(N)(=O)=O)c1ccccc1 (single isomer, unassigned) [Example 148B, 2-(2-Chlorophenyl)-N-[4-(1-phenylethoxy)-3-sulfamoylphenyl]acetamide]

- IC50: 0.166 µM
- Emax: 73%
Compound: COc1ccc(Oc2ccc(NC(=O)Cc3ccccc3Cl)cc2S(N)(=O)=O)cc1 [Example 023, 2-(2-Chlorophenyl)-N-[4-(4-methoxyphenoxy)-3-sulfamoylphenyl]acetamide]

- IC50: 0.776 µM
- Emax: 99%
Compound: NS(=O)(=O)c1cc(NC(=O)Cc2ccccc2Cl)ccc1Oc1cccc(N2CCN(C(=O)Cc3ccccc3Cl)CC2)c1 [Example 027, 2-(2-Chlorophenyl)-N-[4-(3-{4-[(2-chlorophenyl)acetyl]piperazin-1-yl}phenoxy)-3-sulfamoylphenyl]acetamide]

- IC50: 0.172 µM
- Emax: 57%
Compound: COc1ccc(C#N)cc1Oc1ccc(NC(=O)Cc2ccccc2Cl)cc1S(N)(=O)=O [Example 034, 2-(2-Chlorophenyl)-N-[4-(5-cyano-2-methoxyphenoxy)-3-sulfamoylphenyl]acetamide]

- IC50: 0.777 µM
- Emax: 74%
Compound: NS(=O)(=O)c1cc(NC(=O)Cc2ccccc2Cl)ccc1Oc1ncccc1Cl [Example 038, 2-(2-chlorophenyl)-N-{4-[(3-chloropyridin-2-yl)oxy]-3-sulfamoylphenyl}acetamide]

- IC50: 0.238 µM
- Emax: 64%
Compound: NS(=O)(=O)c1cc(NC(=O)Cc2ccccc2Cl)ccc1Oc1cccc(Cl)n1 [Example 040, 2-(2-Chlorophenyl)-N-{4-[(6-chloropyridin-2-yl)oxy]-3-sulfamoylphenyl}acetamide]

- IC50: 0.176 µM
- Emax: 71%
Compound: Cc1ccc(C#N)cc1Oc1ccc(NC(=O)Cc2ccccc2Cl)cc1S(N)(=O)=O [Example 045, 2-(2-Chlorophenyl)-N-[4-(5-cyano-2-methylphenoxy)-3-sulfamoylphenyl]acetamide]

- IC50: 0.773 µM
- Emax: 92%
Compound: NS(=O)(=O)c1cc(NC(=O)Cc2ccccc2Cl)ccc1Oc1cccc(N2CCCCC2)c1 [Example 049, 2-(2-Chlorophenyl)-N-{4-[3-(piperidin-1-yl)phenoxy]-3-sulfamoylphenyl}acetamide]

- IC50: 0.241 µM
- Emax: 72%
Compound: NS(=O)(=O)c1cc(NC(=O)Cc2ccccc2Cl)ccc1Oc1cccc(C(=O)N2CCCCC2)c1 [Example 067, 2-(2-chlorophenyl)-N-{4-[3-(piperidin-1-ylcarbonyl)phenoxy]-3-sulfamoylphenyl}acetamide]

- IC50: 0.609 µM
- Emax: 52%
Compound: NS(=O)(=O)c1cc(NC(=O)Cc2ccccc2)ccc1Oc1ccccc1OC(F)(F)F [Example 074, 2-Phenyl-N-{3-sulfamoyl-4-[2-(trifluoromethoxy)phenoxy]phenyl}acetamide]
